Earlier results, collected in patent publication US8101589B2, “Nitric oxide-releasing molecules” (Noxilizer, Inc., priority 2004, dated 2012).

Conditions: literature (Traube, 1898)

Question: For methylene bisdiazeniumdiolate, which “NO release in solution” value is on record?
Answer: The value was “inability to release NO”.
